Source: paper PMC9917099, “The Mycotoxin Patulin Inhibits the Mitochondrial Carnitine/Acylcarnitine Carrier (SLC25A20) by Interaction with Cys136 Implications for Human Health” (International Journal of Molecular Sciences, 2023)
pIC50: −log10 of the molar value. Where “and” joins values, the source holds several entries; their conditions need not be identical. Equal values may be shown once.

Tests used:
[1] = biological target: T1, native mitochondrial carnitine/acylcarnitine carrier (CAC, SLC25A20) (Rattus norvegicus, UniProt P97521); test: [3H]-carnitine/carnitine antiport in proteoliposomes reconstituted with native CAC extracted from rat liver mitochondria; format: biochemical; settings: PAT incubated 30 min, 0.1 mM [3H]carnitine 10 min, read-out: IC50 of CAC inhibition
T1 construct: the native protein extracted from rat liver mitochondria; from tissue; host or cells: rat liver mitochondria (Triton X-100 extract)
T1 sequence (P97521 1-301): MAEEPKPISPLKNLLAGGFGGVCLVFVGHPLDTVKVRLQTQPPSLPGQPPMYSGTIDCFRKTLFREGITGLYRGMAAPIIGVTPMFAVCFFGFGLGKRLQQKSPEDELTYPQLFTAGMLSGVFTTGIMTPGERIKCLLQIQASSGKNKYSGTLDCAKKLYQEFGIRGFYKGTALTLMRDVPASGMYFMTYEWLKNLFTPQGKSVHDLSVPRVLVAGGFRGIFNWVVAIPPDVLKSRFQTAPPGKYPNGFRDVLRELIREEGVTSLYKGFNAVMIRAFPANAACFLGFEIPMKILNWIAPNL
Description: For studying the effect of PAT on the native mitochondrial CAC, a dose–response analysis on the rat liver-extracted mitochondria was performed. Aliquots of the mitochondrial extract (0.3 mg of total proteins) were reconstituted in liposomes and incubated for 30 min with several concentrations of PAT before starting the transport assay as [^3H]-carnitine/carnitine antiport (see Materials and Methods).
Figure 1 Effect of Patulin on the native carnitine/acylcarnitine carrier (CAC). (A) Dose-response analysis of proteoliposomes reconstituted with the CAC extracted from rat liver mitochondria (0.3 mg of total proteins) and incubated with PAT at the indicated concentrations for 30 min, before measuring the transport activity by adding 0.1 mM [^3H] carnitine for 10 min as described in Materials and Methods. The percentage of residual activity compared to control, without PAT treatment, is reported. […]
For the transport assay, 550 μL of proteoliposomes were passed through a Sephadex G-75 column in order to remove the external substrate. […] After finishing the transport reaction, the external radiolabel substrate was removed by gel filtration chromatography (Sephadex G-75), and the intraliposomal radioactivity was measured by liquid scintillation. Transport was measured at 25 °C. […] Transport rates were measured in 10 min, i.e., within the initial linear range of the time course.

[2] = biological target: T2, CAC in intact rat liver mitochondria (Rattus norvegicus, UniProt P97521); test: Treatment of intact rat liver mitochondria, then solubilization, reconstitution in proteoliposomes and carnitine antiport assay; format: biochemical
T2 construct: the native protein extracted from rat liver mitochondria; from tissue; host or cells: rat liver mitochondria (Triton X-100 extract)
T2 sequence (P97521 1-301): T1 sequence (P97521 1-301)
Description: Figure 1 Effect of Patulin on the native carnitine/acylcarnitine carrier (CAC). (A) Dose-response analysis of proteoliposomes reconstituted with the CAC extracted from rat liver mitochondria (0.3 mg of total proteins) and incubated with PAT at the indicated concentrations for 30 min, before measuring the transport activity by adding 0.1 mM [^3H] carnitine for 10 min as described in Materials and Methods. The percentage of residual activity compared to control, without PAT treatment, is reported. The values are the means ± SD from three independent experiments. (B) Rat liver mitochondria (5 mg/100 μL) were incubated or not (control) for 60 min, with Patulin (60 μM) or GSH (5 mM) as indicated. Upon treatment, the unreacted drug was removed by washing the mitochondria in PBS 1X and then 0.3 mg mitochondria were solubilized by 3% TX-100, 10 mM PIPES pH 7.0 and reconstituted in proteoliposomes for transport assay as indicated in (A) and Materials and Methods. Black and white bars indicate without or with the addition of 5 mM dithioerythritol (DTE) 1 min before the transport assay to aliquots of each sample.
The effect of PAT on the CAC at 60 µM concentration was also detected in intact rat liver mitochondria. Upon treatment (60 min), the mitochondria were solubilized in Triton X-100 and 0.3 mg of mitochondrial extract were reconstituted in proteoliposomes for testing the transport activity of CAC (see above). […] Aliquots of intact mitochondria incubated with PAT were treated also with reduced GSH to verify whether this physiological SH-reducing agent was able to reverse the mycotoxin-protein interactions.
The recombinant CAC proteins were reconstituted in proteoliposomes as previously described. Rat liver mitochondria after purification, using the standard procedure of cell disruption and differential centrifugation were solubilized with 3% Triton X-100 in a PIPES buffer (10 mM) at pH 7.0. Herein, the mitochondrial extract (0.3 mg) were reconstituted in the liposomes as above described for the mitochondrial CAC recombinant protein, in the absence of reducing agents. The concentration of intraliposomal carnitine was 15 mM in all samples.
For the transport assay, 550 μL of proteoliposomes were passed through a Sephadex G-75 column in order to remove the external substrate. Six hundred μL of the turbid eluate were collected, divided into samples of 100 μL each, and used for transport measurement by the inhibitor-stop method. Transport was started as homoexchange by adding 0.1 mM [^3H]-carnitine to proteoliposomes containing 15 mM carnitine and, at the indicated time interval, stopped by 1.5 mM NEM (N-ethylmaleimide). The inhibitor was added together with the labelled substrate at time zero in the control samples. After finishing the transport reaction, the external radiolabel substrate was removed by gel filtration chromatography (Sephadex G-75), and the intraliposomal radioactivity was measured by liquid scintillation. Transport was measured at 25 °C. The experimental values were corrected by subtracting the controls. Transport rates were measured in 10 min, i.e., within the initial linear range of the time course.

cell viability = system: cell viability; set-up: method as in PMID 25098256; settings: 60 µM; cited from earlier work

For `O=C1C=C2C(=CCOC2O)O1` (stereo not shown) [PAT, 4-hydroxy-4H-furo [3,2c] pyran-2 [6H] -one], the pIC50 [1] was 4.26 and ~4.30, the inhibition at 60 µM ([2]; 60 µM PAT, 60 min, intact rat liver mitochondria, read-out: inhibition of CAC transport activity compared to control) was ~50% and the “recovery of transport activity on addition of GSH after PAT treatment” value ([2]; 60 µM PAT, then 5 mM GSH) was “did not lead to a recovery”. The “reversal of PAT binding by DTE” value ([2]; 5 mM DTE added 1 min before transport assay) was “No reverse binding”, the “effect of GSH added to mitochondria before PAT incubation on PAT inhibition” value ([2]; 5 mM GSH before 60 µM PAT) was “prevented” and the pIC50 ([2]; intact rat mitochondria) was 4.22. The “toxicity for cell viability” value (cell viability) was “nontoxic range”.
